Laboratory results from ChEMBL document CHEMBL1275364, “Diaryldiamines with dual inhibition of the histamine H(3) receptor and the norepinephrine transporter and the efficacy of 4-(3-(methylamino)-1-phenylpropyl)-6-(2-(pyrrolidin-1-yl)ethoxy)naphthalen-1-ol in pain” (J Med Chem, 2010).
pKi: −log10 of the molar value. Values after ≈ are worked out from the molar mass of the structure shown.

Columns and labels:
[1] = biological target: T1, Histamine H3 receptor (Homo sapiens, UniProt Q9Y5N1); assay: Antagonist activity at human recombinant histamine H3 receptor expressed in HEK cells assessed as inhibition of RAMH-induced [35S]GTPgammaS binding by liquid scintillation counting; assay type: functional, cell-based; settings: HEK293
T1 sequence (Q9Y5N1 whole entry): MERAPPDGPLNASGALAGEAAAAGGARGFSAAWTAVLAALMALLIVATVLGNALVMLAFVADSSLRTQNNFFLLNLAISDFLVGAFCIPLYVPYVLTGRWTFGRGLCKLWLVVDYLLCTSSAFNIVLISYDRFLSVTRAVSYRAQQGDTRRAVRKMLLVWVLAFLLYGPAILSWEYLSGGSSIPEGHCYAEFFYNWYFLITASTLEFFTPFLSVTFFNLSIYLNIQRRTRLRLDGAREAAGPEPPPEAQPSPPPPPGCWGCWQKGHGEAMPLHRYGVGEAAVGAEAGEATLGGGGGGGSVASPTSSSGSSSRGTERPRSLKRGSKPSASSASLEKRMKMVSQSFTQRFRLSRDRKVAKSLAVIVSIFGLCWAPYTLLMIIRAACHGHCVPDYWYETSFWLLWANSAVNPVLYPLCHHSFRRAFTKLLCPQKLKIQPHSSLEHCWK

[2] = biological target: Sodium-dependent serotonin transporter (Homo sapiens, UniProt P31645)
Sodium-dependent serotonin transporter, sequence (P31645 whole entry): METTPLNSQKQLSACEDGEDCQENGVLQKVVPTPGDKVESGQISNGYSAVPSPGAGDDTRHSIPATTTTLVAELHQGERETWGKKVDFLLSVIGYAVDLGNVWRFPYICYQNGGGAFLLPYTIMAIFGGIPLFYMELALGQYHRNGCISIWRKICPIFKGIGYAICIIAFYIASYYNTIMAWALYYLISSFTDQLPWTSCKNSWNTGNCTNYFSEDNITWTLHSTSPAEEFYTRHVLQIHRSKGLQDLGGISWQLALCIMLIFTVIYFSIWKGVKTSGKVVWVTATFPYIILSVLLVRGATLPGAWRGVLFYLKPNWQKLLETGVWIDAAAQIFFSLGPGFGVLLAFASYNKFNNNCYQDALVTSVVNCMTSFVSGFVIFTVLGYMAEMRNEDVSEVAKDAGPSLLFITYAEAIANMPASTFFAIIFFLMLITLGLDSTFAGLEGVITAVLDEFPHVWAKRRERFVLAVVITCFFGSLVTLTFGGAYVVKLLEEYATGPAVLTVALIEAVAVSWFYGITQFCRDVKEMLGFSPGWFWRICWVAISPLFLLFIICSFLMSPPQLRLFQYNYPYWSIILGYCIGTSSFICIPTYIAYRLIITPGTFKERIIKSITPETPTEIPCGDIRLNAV

[3] = biological target: Histamine H3 receptor (Rattus norvegicus, UniProt Q9QYN8)
Histamine H3 receptor (Rattus norvegicus, UniProt Q9QYN8), sequence (Q9QYN8 whole entry): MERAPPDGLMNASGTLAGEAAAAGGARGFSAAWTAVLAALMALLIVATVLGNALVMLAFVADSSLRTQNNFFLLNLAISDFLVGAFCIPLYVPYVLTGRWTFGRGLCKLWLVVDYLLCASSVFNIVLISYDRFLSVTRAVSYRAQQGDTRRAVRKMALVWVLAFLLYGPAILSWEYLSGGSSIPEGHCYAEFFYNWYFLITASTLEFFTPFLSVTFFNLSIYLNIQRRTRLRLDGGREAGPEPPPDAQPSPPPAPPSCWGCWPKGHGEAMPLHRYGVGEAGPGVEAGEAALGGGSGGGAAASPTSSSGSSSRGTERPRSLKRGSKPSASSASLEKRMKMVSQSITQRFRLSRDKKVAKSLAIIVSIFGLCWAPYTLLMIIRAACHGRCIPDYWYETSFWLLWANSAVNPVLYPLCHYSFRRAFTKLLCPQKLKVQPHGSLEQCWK
Description: Displacement of [3H]N-R-methylhistamine from rat H3 receptor

[4] = biological target: Transporter (Rattus norvegicus, UniProt Q63380); assay: biochemical
Transporter, sequence (Q63380 whole entry): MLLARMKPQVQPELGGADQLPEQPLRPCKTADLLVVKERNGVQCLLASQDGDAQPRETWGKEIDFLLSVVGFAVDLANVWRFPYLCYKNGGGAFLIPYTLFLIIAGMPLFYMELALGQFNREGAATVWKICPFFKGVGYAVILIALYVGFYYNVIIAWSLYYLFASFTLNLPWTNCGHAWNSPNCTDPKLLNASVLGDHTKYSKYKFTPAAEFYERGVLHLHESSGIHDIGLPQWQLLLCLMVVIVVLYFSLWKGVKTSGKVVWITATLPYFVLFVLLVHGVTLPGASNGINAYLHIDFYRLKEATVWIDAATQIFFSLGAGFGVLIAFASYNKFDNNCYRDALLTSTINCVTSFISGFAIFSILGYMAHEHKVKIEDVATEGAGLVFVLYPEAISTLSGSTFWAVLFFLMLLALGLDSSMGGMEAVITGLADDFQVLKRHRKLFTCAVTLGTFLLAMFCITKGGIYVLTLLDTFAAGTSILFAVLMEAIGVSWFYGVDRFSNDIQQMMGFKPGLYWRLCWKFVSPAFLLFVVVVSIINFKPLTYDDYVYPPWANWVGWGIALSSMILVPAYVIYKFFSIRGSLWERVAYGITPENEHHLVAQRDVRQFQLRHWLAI
Description: Displacement of [3H]nisoxetine from rat NET in rat cerebral cortex

[5] = biological target: T1, Histamine H3 receptor; assay: biochemical
Description: Displacement of [3H]N-R-methylhistamine from human H3 receptor isolated from C6 cells

[6] = Cmax in Sprague-Dawley rat at 1 mg/kg, ip; assay type: ADME, organism-based; set-up: dose 1 mg/kg, route intraperitoneal; settings: in vivo
[7] = Tmax in Sprague-Dawley rat at 1 mg/kg, ip; assay type: ADME, organism-based; set-up: dose 1 mg/kg, route intraperitoneal; settings: in vivo
[8] = Bioavailability in Sprague-Dawley rat at 1 mg/kg, ip and iv; assay type: ADME, organism-based; settings: in vivo
[9] = Volume of distribution in Sprague-Dawley rat at 1 mg/kg, iv; assay type: ADME, organism-based; set-up: dose 1 mg/kg, route intravenous; settings: in vivo
[10] = Clearance in Sprague-Dawley rat at 1 mg/kg, iv; assay type: ADME, organism-based; set-up: dose 1 mg/kg, route intravenous; settings: in vivo
[11] = Half life in Sprague-Dawley rat at 1 mg/kg, iv; assay type: ADME, organism-based; set-up: dose 1 mg/kg, route intravenous; settings: in vivo
[12] = Plasma protein binding in Sprague-Dawley rat at 1 mg/kg, iv; assay type: ADME, organism-based; set-up: dose 1 mg/kg, route intravenous; settings: read-out: PPB (converted)
[13] = Plasma protein binding in Sprague-Dawley rat assessed as unbound fraction at 1 mg/kg, iv; assay type: ADME, organism-based; set-up: dose 1 mg/kg, route intravenous
[14] = tested on: Rattus norvegicus; assay: Antiinflammatory activity in Sprague-Dawley rat osteoarthritis model assessed as efficacy at 3 mg/kg, ip after 20 days; assay type: functional; settings: route intraperitoneal
[15] = tested on: Rattus norvegicus; assay: Antiinflammatory activity in Sprague-Dawley rat osteoarthritis model assessed as efficacy at 10 mg/kg, ip after 20 days; assay type: functional; settings: route intraperitoneal
[16] = tested on: Rattus norvegicus; assay: Antiinflammatory activity in ip dosed Sprague-Dawley rat osteoarthritis model assessed as efficacy measured after 20 days; assay type: functional; settings: 480 h
[17] = Plasma concentration in Sprague-Dawley rat osteoarthritis model at 1 mg/kg, ip after 45 mins; assay type: ADME, organism-based; set-up: dose 1 mg/kg, route intraperitoneal
[18] = Plasma concentration in Sprague-Dawley rat osteoarthritis model at 3 mg/kg, ip after 45 mins; assay type: ADME, organism-based; set-up: dose 3 mg/kg, route intraperitoneal
[19] = Plasma concentration in Sprague-Dawley rat osteoarthritis model at 10 mg/kg, ip after 45 mins; assay type: ADME, organism-based; set-up: dose 10 mg/kg, route intraperitoneal
[20] = tested on: Rattus norvegicus; assay: Ex vivo receptor occupancy of histamine H3 receptor in Sprague-Dawley rat osteoarthritis model at 1 mg/kg, ip; assay type: functional; settings: route intraperitoneal
[21] = tested on: Rattus norvegicus; assay: Ex vivo receptor occupancy of histamine H3 receptor in Sprague-Dawley rat osteoarthritis model at 3 mg/kg, ip; assay type: functional; settings: route intraperitoneal
[22] = tested on: Rattus norvegicus; assay: Ex vivo receptor occupancy of histamine H3 receptor in Sprague-Dawley rat osteoarthritis model at 10 mg/kg, ip; assay type: functional; settings: route intraperitoneal
[23] = tested on: Rattus norvegicus; assay: Ex vivo receptor occupancy of NET in Sprague-Dawley rat osteoarthritis model at 1 mg/kg, ip; assay type: functional; settings: route intraperitoneal
[24] = tested on: Rattus norvegicus; assay: Ex vivo receptor occupancy of NET in Sprague-Dawley rat osteoarthritis model at 3 mg/kg, ip; assay type: functional; settings: route intraperitoneal
[25] = tested on: Rattus norvegicus; assay: Ex vivo receptor occupancy of NET in Sprague-Dawley rat osteoarthritis model at 10 mg/kg, ip; assay type: functional; settings: route intraperitoneal
[26] = tested on: Rattus norvegicus; assay: Antiinflammatory activity in ip dosed Sprague-Dawley rat osteoarthritis model assessed as efficacy measured at 370 nM plasma concentration after 20 days; assay type: functional

Q: Which Kb [1] does the source give for `CNCCCC(c1ccccc1)c1ccc(OCCN2CCCC2)cc1` (centres undefined) here?
A: 2.1 nM

Q: What about the pKi [2] of the same compound?
A: < 7.15

Q: And the pKi [3]?
A: 8.54

Q: And the pKi [4]?
A: 7.85

Q: What about the pKi [5] of the same compound?
A: 9.05

Q: With `CNCCC(Oc1cccc2cc(OCCN3CCCC3)ccc12)c1ccccc1` (centres undefined) as the compound, how does the Kb [1] read?
A: 67 nM

Q: And the pKi [3]?
A: 7.32

Q: And the pKi [4]?
A: 6.64

Q: What does the source list for `CNCCCN(c1ccccc1)c1ccc(OCCN2CCCC2)cc1`?
A: Kb [1]: 0.79 nM; pKi [2]: < 7.15; pKi [3]: 9.14; pKi [4]: 6.96; pKi [5]: 9.55

Q: With `CNCCC(c1ccccc1)c1ccc(OCCN2CCCC2)cc1` (centres undefined) as the compound, how does the pKi [2] read?
A: < 7.15

Q: And the pKi [3]?
A: 8.28

Q: And the pKi [4]?
A: 8.37

Q: And the pKi [5]?
A: 8.85

Q: With `CNCCN(c1ccccc1)c1ccc(OCCN2CCCC2)cc1` as the compound, how does the Kb [1] read?
A: 2.4 nM

Q: And the pKi [2]?
A: < 7.15

Q: And the pKi [3]?
A: 8.27

Q: What about the pKi [4] of the same compound?
A: 7.05

Q: What about the pKi [5] of the same compound?
A: 8.80

Q: With `CNCCC(c1ccccc1)c1cccc2ccccc12` (centres undefined) as the compound, how does the pKi [2] read?
A: 8.62

Q: With `CNCCC(c1ccccc1)c1ccc(O)c2ccc(OCCN3CCCC3)cc12` (centres undefined) as the compound, how does the Kb [1] read?
A: 8.3 nM

Q: What about the Cmax [6] of the same compound?
A: 210 ng/mL

Q: What about the Tmax [7] of the same compound?
A: 0.25 h

Q: What about the bioavailability [8] of the same compound?
A: 43%

Q: And the Vd [9]?
A: 8.2 L/kg

Q: And the clearance [10]?
A: 7.67 mL/min/kg

Q: And the half-life [11]?
A: 12 h

Q: What about the fraction unbound [12] of the same compound?
A: 0.33

Q: And the fraction unbound [13]?
A: 0.33

Q: What about the Activity [14] of the same compound?
A: 70%

Q: What about the Activity [15] of the same compound?
A: 93%

Q: What about the ED50 [16] of the same compound?
A: 1.2 mg/kg

Q: What about the concentration at 0.75 h [17] of the same compound?
A: 129 ng/mL

Q: What about the concentration at 0.75 h [18] of the same compound?
A: 382 ng/mL

Q: What about the concentration at 0.75 h [19] of the same compound?
A: 1240 ng/mL

Q: And the Activity [20]?
A: 74%

Q: What about the Activity [21] of the same compound?
A: 89%

Q: And the Activity [22]?
A: 97%

Q: And the Activity [23]?
A: 88%

Q: What about the Activity [24] of the same compound?
A: 96%

Q: And the Activity [25]?
A: 99%

Q: What about the pKi [2] of the same compound?
A: 8.15

Q: And the ED50 [26]?
A: 0.15 µg/mL (≈ 0.371 µM)

Q: What about the pKi [3] of the same compound?
A: 7.43

Q: And the pKi [4]?
A: 7.85

Q: What about the pKi [5] of the same compound?
A: 8.13
